Measurements published in the supplement of paper PMC10307832.

Columns and labels:
Test in all cases: relative viability (nuclei count vs DMSO), 5 days (fraction); higher = more cells survive
[1] = compound: CC[C@@H]1C(=O)N(C)c2cnc(Nc3ccc(C(=O)NC4CCN(C)CC4)cc3OC)nc2N1C1CCCC1 [BI-2536] + O=C(CCCCCCC(=O)Nc1ccccc1)NO [Vorinostat] (partner 1 µM)
Procedure, shortened: (§1)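 Cells from lung cancer lines were seeded into 1536-well plates and, one day later, dosed by pin tool. Treatments were either a single drug or a fixed dose of an anchor drug with five library-drug doses (not always all listed) in √10 steps. After 5 days, nuclei were stained in a one-step fixation (final 0.05% Triton X-100, 1% formaldehyde, 1 ug/ml Hoechst) and counted on 4× images, and relative viability is the treated-to-vehicle nuclei ratio, as the median of duplicate plates.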

[2] = compound: CC[C@@H]1C(=O)N(C)c2cnc(Nc3ccc(C(=O)NC4CCN(C)CC4)cc3OC)nc2N1C1CCCC1 [BI-2536] + COc1cccc2cc(-c3nc([C@H]4CC[C@H](C(=O)O)CC4)n4ncnc(N)c34)[nH]c12 [OSI-027] (partner 0.5 µM)
Procedure, shortened: as §1

[3] = compound: CC[C@@H]1C(=O)N(C)c2cnc(Nc3ccc(C(=O)NC4CCN(C)CC4)cc3OC)nc2N1C1CCCC1 [BI-2536] + C[C@]1(O)C[C@@H](c2nc(-c3ccc4ccc(-c5ccccc5)nc4c3)c3c(N)nccn32)C1 [Linsitinib] (partner 1 µM)
Procedure, shortened: as §1

[4] = compound: CC[C@@H]1C(=O)N(C)c2cnc(Nc3ccc(C(=O)NC4CCN(C)CC4)cc3OC)nc2N1C1CCCC1 [BI-2536] + Cc1nc(NC(=O)N2CCC[C@H]2C(N)=O)sc1-c1ccnc(C(C)(C)C(F)(F)F)c1 [Alpelisib] (partner 2 µM)
Procedure, shortened: as §1

Row | Cell Line | relative viability ([1]; first compound 0.01 µM) | relative viability ([1]; first compound 0.03162 µM) | relative viability ([1]; first compound 0.1 µM) | relative viability ([1]; first compound 0.3162 µM) | relative viability ([1]; first compound 1 µM) | relative viability ([2]; first compound 0.01 µM) | relative viability ([2]; first compound 0.03162 µM) | relative viability ([2]; first compound 0.1 µM) | relative viability ([2]; first compound 0.3162 µM) | relative viability ([2]; first compound 1 µM) | relative viability ([3]; first compound 0.01 µM) | relative viability ([3]; first compound 0.03162 µM) | relative viability ([3]; first compound 0.1 µM) | relative viability ([3]; first compound 0.3162 µM) | relative viability ([3]; first compound 1 µM) | relative viability ([4]; first compound 0.01 µM) | relative viability ([4]; first compound 0.03162 µM) | relative viability ([4]; first compound 0.1 µM) | relative viability ([4]; first compound 0.3162 µM) | relative viability ([4]; first compound 1 µM)
1 | NCI-H1650 | 0.624 | 0.555 | 0.276 | 0.169 | 0.142 | 0.636 | 0.564 | 0.169 | 0.18 | 0.159 | – | – | – | – | – | – | – | – | – | –
2 | BEN | 0.574 | 0.452 | 0.412 | 0.386 | 0.38 | 0.312 | 0.261 | 0.272 | 0.233 | 0.169 | 0.876 | 0.874 | 0.83 | 0.658 | 0.222 | 1.05 | 0.779 | 0.695 | 0.261 | 0.245
3 | EMC-BAC-2 | 0.468 | 0.416 | 0.171 | 0.144 | 0.131 | 0.381 | 0.358 | 0.249 | 0.193 | 0.184 | 0.852 | 0.866 | 0.872 | 0.444 | 0.236 | 0.741 | 0.886 | 0.604 | 0.161 | 0.12
4 | LU99A | 0.406 | 0.405 | 0.151 | 0.162 | 0.163 | 0.281 | 0.28 | 0.181 | 0.161 | 0.17 | 0.593 | 0.534 | 0.472 | 0.172 | 0.194 | 0.53 | 0.515 | 0.209 | 0.146 | 0.179
5 | ABC-1 | 1.22 | 1.06 | 0.613 | 0.418 | 0.51 | 0.419 | 0.362 | 0.237 | 0.236 | 0.19 | 0.816 | 0.838 | 0.895 | 0.292 | 0.253 | 1.08 | 1.13 | 0.732 | 0.296 | 0.3
6 | NCI-H2170 | 0.787 | 0.736 | 0.159 | 0.144 | 0.175 | 0.762 | 0.757 | 0.285 | 0.172 | 0.209 | – | – | – | – | – | 0.767 | 0.871 | 0.402 | 0.195 | 0.223
7 | NCI-H1299 | – | – | – | – | – | – | – | – | – | – | 1 | 0.971 | 0.974 | 0.245 | 0.363 | 0.952 | 1.15 | 1 | 0.278 | 0.339
8 | EBC-1 | – | – | – | – | – | – | – | – | – | – | 0.966 | 0.797 | 0.863 | 0.172 | 0.154 | 0.852 | 0.799 | 0.564 | 0.175 | 0.179
9 | NCI-H2347 | 0.509 | 0.591 | 0.456 | 0.436 | 0.336 | – | 0.464 | 0.346 | 0.285 | 0.276 | 0.947 | 0.929 | 0.967 | 0.617 | 0.549 | 1.03 | 0.923 | 0.89 | 0.448 | 0.497
10 | NCI-H1993 | 0.665 | 0.425 | 0.456 | 0.489 | 0.416 | 0.521 | 0.481 | 0.519 | 0.484 | 0.453 | 0.709 | 0.637 | 0.579 | 0.528 | 0.611 | 0.68 | 0.618 | 0.556 | 0.532 | 0.541
11 | NCI-H322M | 0.926 | 0.829 | 0.641 | 0.45 | 0.422 | 0.52 | 0.52 | 0.37 | 0.411 | 0.305 | 0.921 | 0.835 | 1.04 | 0.668 | 0.339 | 0.912 | 0.881 | 0.811 | 0.618 | 0.269
12 | NCI-H838 | 0.766 | 0.668 | 0.371 | 0.152 | 0.141 | 0.386 | 0.444 | 0.393 | 0.146 | 0.149 | 1.05 | 0.961 | 0.96 | 0.136 | 0.126 | 0.967 | 1 | 0.661 | 0.124 | 0.144
13 | NCI-H2342 | – | 0.705 | 0.79 | 0.445 | 0.385 | 0.664 | 0.546 | 0.598 | 0.362 | 0.367 | – | – | – | – | – | – | – | – | – | –
14 | NCI-H1792 | – | – | – | – | – | 0.818 | 0.758 | 0.678 | 0.591 | 0.395 | 0.585 | 0.634 | 0.495 | 0.444 | 0.131 | 0.786 | 0.804 | 0.643 | 0.34 | 0.134
15 | ChaGo-K-1 | 0.764 | 0.749 | 0.265 | 0.182 | 0.196 | 0.661 | 0.577 | 0.253 | 0.136 | 0.155 | – | – | – | – | – | – | – | – | – | –
16 | A549 | – | – | – | – | – | – | – | – | – | – | 0.582 | 0.536 | 0.63 | 0.294 | 0.0483 | 0.767 | 0.814 | 0.698 | 0.0447 | 0.0443
17 | NCI-H1563 | – | – | – | – | – | 0.811 | 0.792 | 0.704 | 0.535 | 0.541 | 1.17 | 1.19 | 1.22 | 0.73 | 0.766 | 0.858 | 0.933 | 0.928 | 0.598 | 0.583
18 | SW 900 | 0.445 | 0.598 | 0.481 | 0.159 | 0.218 | 0.6 | 0.427 | 0.456 | 0.129 | 0.132 | – | – | – | – | – | – | – | – | – | –
19 | IA-LM | 1.07 | 1.26 | 0.692 | 0.0844 | 0.0605 | – | – | – | – | – | 0.641 | 0.55 | 0.774 | 0.104 | 0.164 | 0.729 | 0.652 | 0.588 | 0.0728 | 0.0917
20 | NCI-H1703 | – | – | – | – | – | – | – | – | – | – | 0.77 | 0.296 | 0.574 | 0.117 | 0.0956 | 0.347 | 0.247 | 0.279 | 0.0951 | 0.123
21 | NCI-H1648 | 0.331 | 0.596 | 0.264 | 0.189 | 0.21 | 0.258 | 0.25 | 0.233 | 0.203 | 0.24 | – | – | – | – | – | – | – | – | – | –
